Reference: ChEMBL document CHEMBL1201862, “PubChem BioAssay data set” (2004)
Calls of active or inactive are those of the source.

Assays:
[1] = potency of ADAM10 substrate cleavage blockers – biochemical, QFRET, dose response (AID 743254);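 note: ADAM10 enzyme with the DM2 quenched FRET peptide as substrate; EDANS fluorescence gain as the protease cuts the substrate; inhibitor potency against ADAM10 proteolytic activity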
[2] = biological target: Disintegrin and metalloproteinase domain-containing protein 17 (Homo sapiens, UniProt P78536); assay: inhibition of ADAM17 substrate cleavage – biochemical, quenched FRET substrate, counter-screen for ADAM10 exosite inhibitor project, dose response (AID 743253)
[3] = A Cell Based Secondary Assay To Explore Cytotoxicity of Compounds that Sensitize Mycobacterium Tuberculosis to Beta-Lactam Antibiotics.; assay type: functional
[4] = NIH3T3 cell viability loss – ATP luminescence, mouse fibroblasts, counter-screen, dose response (AID 2010); assay type: functional, cell-based;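 note: cells exposed to compound for about 90 hours before reading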
[5] = Trypanosoma cruzi growth suppression in host cells – NIH3T3 host cells, beta-gal luminescence, confirmation (AID 2044); assay type: functional, cell-based;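 note: intracellular parasites grown in NIH/3T3 mouse fibroblasts as host cells; luminescent beta-galactosidase reporter signal from transgenic T. cruzi replicating inside host cells; inhibitors lower the luminescence signal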
[6] = biological target: Induced myeloid leukemia cell differentiation protein Mcl-1 (Homo sapiens, UniProt Q07820); assay type: functional
[7] = biological target: T1, DNA repair protein RAD52 homolog (Homo sapiens, UniProt P43351); assay type: functional, biochemical
T1 sequence (P43351 whole entry): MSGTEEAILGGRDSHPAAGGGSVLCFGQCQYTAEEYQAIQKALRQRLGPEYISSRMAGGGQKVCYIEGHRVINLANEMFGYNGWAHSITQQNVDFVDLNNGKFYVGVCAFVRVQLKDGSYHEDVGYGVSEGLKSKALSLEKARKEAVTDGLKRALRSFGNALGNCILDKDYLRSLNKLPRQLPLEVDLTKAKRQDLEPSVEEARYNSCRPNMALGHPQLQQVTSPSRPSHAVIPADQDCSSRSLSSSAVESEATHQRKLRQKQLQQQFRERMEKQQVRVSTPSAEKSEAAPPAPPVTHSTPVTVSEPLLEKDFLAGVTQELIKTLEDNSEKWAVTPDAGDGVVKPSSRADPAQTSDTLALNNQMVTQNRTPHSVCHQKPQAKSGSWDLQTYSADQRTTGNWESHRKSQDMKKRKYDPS

[8] = biological target: T2, DNA repair and recombination protein RAD54-like (Homo sapiens, UniProt Q92698); assay: RAD54 Holliday junction migration blockers – biochemical, fluorescence, cherry-picked samples, dose series, confirmation (AID 651657); assay type: functional
T2 sequence (Q92698 whole entry): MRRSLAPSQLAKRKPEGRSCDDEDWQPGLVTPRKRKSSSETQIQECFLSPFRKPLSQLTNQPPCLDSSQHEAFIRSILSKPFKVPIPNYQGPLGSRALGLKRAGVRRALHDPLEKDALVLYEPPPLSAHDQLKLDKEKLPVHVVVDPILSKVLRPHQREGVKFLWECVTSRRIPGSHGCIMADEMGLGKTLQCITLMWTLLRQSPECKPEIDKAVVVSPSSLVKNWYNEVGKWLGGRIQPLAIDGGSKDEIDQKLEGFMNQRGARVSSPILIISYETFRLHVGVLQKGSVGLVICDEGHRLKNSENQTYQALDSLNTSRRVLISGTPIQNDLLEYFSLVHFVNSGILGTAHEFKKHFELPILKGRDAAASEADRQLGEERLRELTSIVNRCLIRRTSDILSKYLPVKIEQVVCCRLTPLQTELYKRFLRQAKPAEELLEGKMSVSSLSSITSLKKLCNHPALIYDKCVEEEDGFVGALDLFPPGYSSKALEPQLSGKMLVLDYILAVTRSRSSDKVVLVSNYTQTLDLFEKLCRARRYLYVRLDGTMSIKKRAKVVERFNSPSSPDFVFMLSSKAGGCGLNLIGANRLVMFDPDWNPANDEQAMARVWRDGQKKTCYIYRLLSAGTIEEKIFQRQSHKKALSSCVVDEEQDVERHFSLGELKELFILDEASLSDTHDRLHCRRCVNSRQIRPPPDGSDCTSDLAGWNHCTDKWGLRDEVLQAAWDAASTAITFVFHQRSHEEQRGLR

[9] = P. falciparum Dd2 growth inhibitors, dose response, SYBR Green, cherry-picked samples (AID 1159567); assay type: functional, cell-based
[10] = toxicity to human hepatoma HepG2 cells – cell-based, cherry-picked samples, cytotoxicity control, dose response (AID 1159577); assay type: functional

Chain of Disintegrin and metalloproteinase domain-containing protein 17 (P78536 whole entry, the tested form may be a part): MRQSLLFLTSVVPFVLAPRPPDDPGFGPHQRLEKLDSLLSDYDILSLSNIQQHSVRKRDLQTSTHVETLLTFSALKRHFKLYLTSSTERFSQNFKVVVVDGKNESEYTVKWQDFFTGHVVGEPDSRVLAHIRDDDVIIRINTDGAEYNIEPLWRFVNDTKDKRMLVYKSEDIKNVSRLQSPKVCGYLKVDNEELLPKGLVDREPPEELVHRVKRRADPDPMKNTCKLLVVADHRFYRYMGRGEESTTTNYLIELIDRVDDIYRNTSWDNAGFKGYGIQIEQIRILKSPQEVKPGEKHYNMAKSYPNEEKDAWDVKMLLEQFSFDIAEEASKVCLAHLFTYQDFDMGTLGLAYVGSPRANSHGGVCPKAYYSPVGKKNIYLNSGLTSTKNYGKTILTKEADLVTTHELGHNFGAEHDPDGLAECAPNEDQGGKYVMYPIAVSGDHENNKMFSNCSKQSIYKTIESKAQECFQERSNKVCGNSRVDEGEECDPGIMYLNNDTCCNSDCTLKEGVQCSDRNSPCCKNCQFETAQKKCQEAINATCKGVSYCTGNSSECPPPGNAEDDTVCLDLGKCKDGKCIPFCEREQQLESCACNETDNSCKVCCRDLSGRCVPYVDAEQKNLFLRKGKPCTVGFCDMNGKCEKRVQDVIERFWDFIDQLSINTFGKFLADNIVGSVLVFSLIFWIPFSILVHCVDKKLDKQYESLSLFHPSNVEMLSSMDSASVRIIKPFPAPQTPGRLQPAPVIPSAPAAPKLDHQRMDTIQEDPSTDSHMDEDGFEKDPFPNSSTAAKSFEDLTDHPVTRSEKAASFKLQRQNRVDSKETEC
Chain of Induced myeloid leukemia cell differentiation protein Mcl-1 (Q07820 whole entry): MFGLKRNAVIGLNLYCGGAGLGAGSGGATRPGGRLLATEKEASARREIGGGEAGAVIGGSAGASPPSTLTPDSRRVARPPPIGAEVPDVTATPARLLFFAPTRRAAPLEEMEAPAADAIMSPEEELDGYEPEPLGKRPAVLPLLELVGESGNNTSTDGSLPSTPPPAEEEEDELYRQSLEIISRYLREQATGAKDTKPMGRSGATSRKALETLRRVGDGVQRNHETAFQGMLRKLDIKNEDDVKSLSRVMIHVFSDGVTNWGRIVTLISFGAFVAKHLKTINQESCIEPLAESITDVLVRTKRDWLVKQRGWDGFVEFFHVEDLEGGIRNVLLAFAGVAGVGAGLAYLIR

COc1ccc2c(c1)c(CC(=O)Nc1ccc(C(C)=O)cc1)c(C)n2C(=O)c1ccc(Cl)cc1
IC50 [1]: > 69.5 µM (inactive)
IC50 [2]: > 69.5 µM (inactive)

Cc1ccc2[nH]c(O)c(N=Nc3nc4ccccc4s3)c2c1
CC50 [3]: 39.6 µM (active)
EC50 [4]: > 60 µM (not active)
EC50 [5]: 3.38 µM (active)
IC50 [6]: 2.11 µM (active)

CCN(CC)CCN(C(=O)C1=COCCO1)c1nc2c(OC)ccc(OC)c2s1
AC50 [7]: 8.89 µM (active)
AC50 [8]: 23.5 µM (active)

COc1ccc(CN([C@H](CO)CC(C)C)S(=O)(=O)N(Cc2ccccc2)[C@H](CO)CC(C)C)cc1
IC50 [1]: 5.93 µM (active)
IC50 [2]: > 69.5 µM (inactive)

COc1ccc(-c2c/c(=N\c3ccc(C)cc3)c3ccccc3o2)cc1
CC50 [3]: > 40 µM (active)

COc1ccc2c3c([nH]c2c1)[C@H](CO)N(CC1CC1)CC31CCN(S(=O)(=O)c2cccc(F)c2)CC1
AC50 [9]: 4 µM (active)
AC50 [10]: > 39 µM (inactive)
